Laboratory results: patent US9393181B2, “Dental materials with improved hydrolysis stability based on phthalic acid monomers” (Ivoclar Vivadent AG, priority 2011, dated 2016)

How the values were obtained:
Solubility in solvents = assay type: physicochemical; conditions: e.g. in ethanol or acetone
Method: Furthermore compositions which contain water as solvent (f) are preferred. The solubility of the phthalic acid derivatives of the Formula (I) in polar solvents is good.
4-hydroxyphthalic anhydride (6.70 g; 40.8 mmol), BHT (10 mg) and N-(11-bromoundecyl)-N-methyl acrylamide (13.00 g; 40.8 mmol) were dissolved in N,N-dimethylformamide (100 ml). Potassium carbonate (5.64 g; 40.8 mmol) was added. The yellow suspension was stirred at RT. Water (200 ml) was added to the reaction mixture after 20 d and the whole stirred for 1 h at RT. An oily white solid precipitated from the initially cloudy solution. The solvent was decanted off. The residue was dissolved in dilute aqueous Na2CO3 solution (5%; 100 ml). The milky/cloudy aqueous phase was washed with MtBE (5×100 ml). Diluted hydrochloric acid (2N, 100 ml) was added to the water phase (pH=1) and extraction with MtBE (8×100 ml) took place. The combined extracts were dried over Na2SO4, filtered and concentrated on the rotary evaporator. Chloroform (150 ml) was added to the residue and the whole stirred at RT. After 20 h the suspension was filtered. The filtration residue was washed with chloroform (50 ml) and discarded. The filtrate was concentrated on the rotary evaporator. The residue was dissolved in chloroform (50 ml). Acetonitrile (50 ml) was added. After 72 h storage at −18° C. the solvent was decanted off and the residue dried under a fine vacuum.

[1] = Hydrolysis stability of AAUPA in acidic solution, followed by 1H-NMR; assay type: physicochemical; conditions: 5% AAUPA, 200 ppm BHT, 5% phosphoric acid d3, 10% D2O, 80% DMSO-d6; stored at 37° C., standing time 12 weeks
Method: A solution of 5% of the phthalic acid acrylamide AAUPA stabilized with 200 ppm 2,6-di-t-butyl-4-methylphenol, 5% phosphoric acid d3, 10% D2O and 80% DMSO-d6 was prepared, was stored at 37° C. and examined spectroscopically with ^1H-NMR. After a standing time of 12 weeks, no changes were able to be established in the ^1H-NMR spectrum.

[2] = in aqueous solutions; cited from earlier work

| Compound | solubility (Solubility in solvents) | changes in the 1H-NMR spectrum (hydrolysis stability) [1] | hydrolysis to 4-MET [2] |
| --- | --- | --- | --- |
| C=CC(=O)N(C)CCCCCCCCCCCOc1ccc(C(=O)O)c(C(=O)O)c1 [AAUPA, 4-[11-(acryloyl-methyl-amino)-undecyloxy]phthalic acid] | dissolves very well | no changes |  |
| C=C(C)C(=O)OCCOC(=O)c1ccc2c(c1)C(=O)OC2=O [Example 4-META] |  |  | very quickly hydrolyzed |
